T1: COMT (Homo sapiens, UniProt P21964)
T1 construct: made in house; host or cells: Escherichia coli DH5αF′Iq
T1 sequence (P21964 51-271): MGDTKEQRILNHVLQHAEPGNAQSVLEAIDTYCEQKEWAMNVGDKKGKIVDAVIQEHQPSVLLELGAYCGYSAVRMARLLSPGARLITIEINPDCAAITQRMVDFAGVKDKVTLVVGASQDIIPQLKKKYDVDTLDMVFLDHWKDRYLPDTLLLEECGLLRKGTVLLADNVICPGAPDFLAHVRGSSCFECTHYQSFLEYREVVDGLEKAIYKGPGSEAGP


Experiments:
COMT = target: T1, COMT; assay: Assay of COMT activity, purified recombinant His-COMT, methylation of catechol estrogens; assay type: biochemical; settings: for Km: formation of the named product from its catechol estrogen, recombinant His-COMT, 200 μM SAM, 10 min at 37° C.; for kcat: formation of the named product, in min-1 (unit assumed); for formation of product by COMT: methylation of 4-OHE2 and 4-OHE1; for Hill Coefficient: sigmoidal fit
Protocol: Assay of COMT Activity. Purified recombinant His-COMT (300 pmol) was reconstituted 0.5 ml of 100 mM KPO4, pH 7.4, containing 5 mM MgCl2, 10 mM β-mercaptoethanol, and 200 μM SAM. Reactions were initiated by adding varying concentrations of each individual catechol estrogen (2, 3, 6, 9, 12, 15, 20, 40, 60, 80, and 100 μM). Blanks contained all compounds except SAM. Reactions proceeded for 10 min at 37° C. with gentle shaking and then were terminated by addition of 2 ml CH2Cl2. To determine COMT activity in breast cancer cells, ZR-75 and MCF-7 cells were harvested at confluency and homogenized in 100 mM KPO4, pH 7.4, 5 mM MgCl2, 10 mM β-mercaptoethanol. Following ultracentrifugation of the cell homogenate (110,000 g, 30 min, 4° C.), the supernatant cytosol was divided into aliquots for ICELISA, protein determination (BCA assay; Pierce, Rockford, Ill.), and COMT assay. The latter was carried out in the presence of 200 μM SAM and 100 μM catechol estrogen for 20 min at 37° C. and then terminated by addition of CH2Cl2. The concentration of endogenous catechol and methoxy estrogens was below the limit of detection by gas chromatography/mass spectrometry.
Extraction and Gas Chromatography/Mass Spectrometry Analysis of Catechol Estrogens. A deuterated internal standard (100 μl of 8 mg/liter E2-d4 in methanol) was added and all estrogens extracted into the CH2Cl2 by vortex mixing for 30 s. 1.5 ml of the CH2Cl2 fraction was evaporated to dryness under air and volatile TMS derivatives prepared by heating the residue with 100 μl of 50% NO-bis(trimethylsilyl)trifluoroacetamide/1% trimethyl chlorosilane in acetonitrile at 56° C. for 30 min. The TMS derivatives of the estrogen metabolites were separated by gas chromatography (H-P 5890, Hewlett-Packard, Wilmington, Del.) on a 5% phenyl methyl silicone stationary phase fused silica capillary column (30 m×0.2 mm×0.5 μm film, HP5; Hewlett-Packard). Helium carrier gas was used at a flow of 1 ml/min. The injector was operated at 250° C., with 2 μl injected in the splitless mode, with a purge (60 ml/min helium) time of 0.6 min. The oven temperature was held at 180° C. for 0.5 min, then raised at 6° C./min to 250° C. where it was held for 17 min, then raised to 300° C. at 8° C./min to give a total run time of 35.42 min. This program permitted adequate separation of a wide range of estrogen metabolites. Retention times (in min) for the TMS derivatives were E1 20.13, E2 and E2-d4 21.89, 4-MeOE1 23.52, 2-MeO-3-MeOE1 (underivatized) 23.75, 2-OH-3-MeOE1 24.87, 2-MeOE1 25.2, 4-MeOE2 25.78, 2-OHE1 and 2-MeO-3-MeOE2 26.19, 2-OH-3-MeOE2 26.9, 2-MeOE2 27.18, 4-OHE1 27.27, 6α-OHE2 27.29, 2-OHE2 27.44, 4-OHE2 28.06, E3 28.38. The EI mass spectrometer (H-P 5970) was operated in the selected ion monitoring mode from 18 to 30 min. Ions monitored were TMS-E1 342, 257, 343; TMS2-E2-d4 420, 421, 287; TMS2-E2 416, 417, 285; TMS-4-MeOE1, TMS-2-OH-3-MeOE1, TMS-2-MeOE1 and TMS-3-MeO-4-OHE1 372, 373, 342; 2-MeO-3-MeOE1 314, 315, 229; TMS2-4-MeOE2, TMS2-2-OH-3-MeOE2, TMS2-2-MeOE2 and TMS2-3-MeO-4-OHE2 446, 447, 315; TMS2-2-OHE1 430, 431, 432; TMS-2-MeO-3-MeOE2 388, 389, 257; TMS2-4-OHE1 430, 431, 345; TMS2-6α-OHE2 414, 283, 309; TMS3-2-OHE2 and TMS3-4-OHE2 504, 505, 373; TMS3-E3 504, 505, 311 (FIG. 7). The instrument was calibrated by simultaneous preparation of an 11-point calibration over the range 0-22 nmol/tube of each compound. Sensitivity was determined to be between 0.02 and 0.04 nmol/tube (400-800 fmol on column) for the various compounds. […] Absolute extraction efficiency for E2, 2-OH-E2 and 4-OH-E2 at 3.5 nmol/tube was 119, 96, and 107% assessed by comparison to injections of spiked solvent samples onto the gas chromatograph. Internal standard added prior to extraction compensated for deviation from 100% recovery for all investigated compounds.
Statistical Analysis. […]

CYP1B1 = assay: Assay of CYP1B1 E2 hydroxylation activity; assay type: biochemical, human; settings: for 2-OH-Estradiol kcat: E2 2-hydroxylation; for 4-OH-Estradiol kcat: E2 4-hydroxylation; for 16a-OH-Esrradiol kcat: E2 16α-hydroxylation
Protocol: Assay of CYP1B1 E2 Hydroxylation Activity. Purified CYP1B1 (200 pmol) was reconstituted with a 2-fold molar amount of recombinant rat NADPH-P450 reductase (400 pmol), purified as previously described, and 60 μg of L-α-dilauroyl-sn-glycero-3-phosphocholine in the presence of sodium cholate (0.005%, w/v) in 0.4 ml of 100 mM potassium phosphate buffer, pH 7.4, containing varying concentrations of E2 (2, 3, 6, 9, 12, 15, 20, 40, 60, 80, and 100 μM) and 1 mM ascorbate. An NADPH-generating system consisting of 5 mM glucose 6-phosphate and 0.5 U of glucose-6-phosphate dehydrogenase/ml was added and reactions initiated by adding NADP+ to a final concentration of 0.5 mM. Reactions proceeded for 10 min at 37° C. with gentle shaking and then were terminated by addition of 2 ml CH2Cl2.
Extraction and Gas Chromatography/Mass Spectrometry Analysis of E2 and Metabolites. A deuterated internal standard (100 μl of 8 mg/liter E2-2, 4, 16, 16-d4 in methanol; CDN Isotopes, Pointe-Claire, Quebec) was added and all steroids extracted into CH2Cl2 by vortex mixing for 30 s. 1.5 ml of the CH2Cl2 fraction was evaporated to dryness under air and volatile TMS derivatives prepared by heating the residue with 100 μl of 50% NO-bis(trimethylsilyl)trifluoroacetamide/1% trimethyl chlorosilane in acetonitrile at 56° C. for 30 min. The TMS derivatives of E2 and its metabolites were separated by gas chromatography (H-P 5890, Hewlett-Packard, Wilmington, Del.) on a 5% phenyl methyl silicone stationary phase fused silica capillary column (30 m×0.2 mm×0.5 μm film, HP5; Hewlett-Packard). Helium carrier gas was used at a flow of 1 ml/min. The injector was operated at 250° C., with 2 μl injected in the splitless mode, with a purge (60 ml/min helium) time of 0.6 min. The oven temperature was held at 189° C. for 0.5 min, then raised at 6° C./min to 250° C. where it was held for 17 min, then raised to 300° C. at 8° C./min to give a total run time of 35.42 min. […] The EI mass spectrometer (H-P 5970) was operated in the selected ion monitoring mode from 18 to 34 min. Ions monitored were TMS2-E2-d4 420, 288, 330; TMS2-E2 416, 285, 326; TMS3-2-OH-E2 504, 373; TMS3-4-OH-E2 504, 373, 325; TMS3-16α-OH-E2 345, 311, 504. The instrument was calibrated by simultaneous preparation of an 11-point calibration over the range […]/tube of each compound. […] Internal standard added prior to extraction compensated for deviation from 100% recovery.
Statistical Analysis. Kinetic parameters (Km and kcat) were determined by nonlinear regression analysis using the computer program GraphPad PRISM (San Diego, Calif.).

Molecule	Km (COMT) [µM]	kcat (COMT)	also measured
COc1cc2c(cc1O)CC[C@@H]1[C@@H]2CC[C@]2(C)[C@@H](O)CC[C@@H]12 [2-MeOE2]	108 ± 9	6.8 ± 0.4	
COc1cc2c(cc1O)[C@H]1CC[C@]3(C)[C@@H](O)CC[C@H]3[C@@H]1CC2 [2-OH-3-MeOE2]	51 ± 5	1.5 ± 0.1	
C[C@]12CC[C@@H]3c4cc(O)c(O)cc4CC[C@H]3[C@@H]1CCC2=O [2-OHE1]			pattern of rates of methylation (COMT; substrate 2-100 μM): typical hyperbolic patterns
COc1ccc2c(c1O)CC[C@@H]1[C@@H]2CC[C@]2(C)C(=O)CC[C@@H]12 [3-MeO-4-OHE1]			formation of product by COMT (COMT): not observed
COc1ccc2c(c1O)CC[C@@H]1[C@@H]2CC[C@]2(C)[C@@H](O)CC[C@@H]12 [3-MeO-4-OHE2]			formation of product by COMT (COMT): not observed
Variant 4: recombinant CYP1B1 with 48Arg, 119Ala, 432Val, 453Ser (protein, UniProt Q16678 1-543, looked up, variant N453S) Cytochrome P450 1B1: MGTSLSPNDPWPLNPLSIQQTTLLLLLSVLATVHVGQRLLRQRRRQLRSAPPGPFAWPLIGNAAAVGQAAHLSFARLARRYGDVFQIRLGSCPIVVLNGERAIHQALVQQGSAFADRPAFASFRVVSGGRSMAFGHYSEHWKVQRRAAHSMMRNFFTRQPRSRQVLEGHVLSEARELVALLVRGSADGAFLDPRPLTVVAVANVMSAVCFGCRYSHDDPEFRELLSHNEEFGRTVGAGSLVDVMPWLQYFPNPVRTVFREFEQLNRNFSNFILDKFLRHCESLRPGAAPRDMMDAFILSAEKKAAGDSHGGGARLDLENVPATITDIFGASQDTLSTALQWLLLLFTRYPDVQTRVQAELDQVVGRDRLPCMGDQPNLPYVLAFLYEAMRFSSFVPVTIPHATTANTSVLGYHIPKDTVVFVNQWSVNHDPLKWPNPENFDPARFLDKDGLISKDLTSRVMIFSVGKRRCIGEELSKMQLFLFISILAHQCDFRANPNEPAKMNFSYGLTIKPKSFKVNVTLRESMELLDSAVQNLQAKETCQ			2-OH-Estradiol kcat (CYP1B1): 0.0467 ± 0.0033 s⁻¹; 4-OH-Estradiol kcat (CYP1B1): 0.075 ± 0.005 s⁻¹; 16a-OH-Esrradiol kcat (CYP1B1): 0.0065 ± 0.00033 s⁻¹
Variant 1: recombinant CYP1B1 with 48Gly, 119Ala, 432Val, 453Asn (protein, UniProt Q16678 1-543, looked up, variant R48G) Cytochrome P450 1B1: MGTSLSPNDPWPLNPLSIQQTTLLLLLSVLATVHVGQRLLRQRRRQLGSAPPGPFAWPLIGNAAAVGQAAHLSFARLARRYGDVFQIRLGSCPIVVLNGERAIHQALVQQGSAFADRPAFASFRVVSGGRSMAFGHYSEHWKVQRRAAHSMMRNFFTRQPRSRQVLEGHVLSEARELVALLVRGSADGAFLDPRPLTVVAVANVMSAVCFGCRYSHDDPEFRELLSHNEEFGRTVGAGSLVDVMPWLQYFPNPVRTVFREFEQLNRNFSNFILDKFLRHCESLRPGAAPRDMMDAFILSAEKKAAGDSHGGGARLDLENVPATITDIFGASQDTLSTALQWLLLLFTRYPDVQTRVQAELDQVVGRDRLPCMGDQPNLPYVLAFLYEAMRFSSFVPVTIPHATTANTSVLGYHIPKDTVVFVNQWSVNHDPLKWPNPENFDPARFLDKDGLINKDLTSRVMIFSVGKRRCIGEELSKMQLFLFISILAHQCDFRANPNEPAKMNFSYGLTIKPKSFKVNVTLRESMELLDSAVQNLQAKETCQ			2-OH-Estradiol kcat (CYP1B1): 0.0533 ± 0.0033 s⁻¹; 4-OH-Estradiol kcat (CYP1B1): 0.1 ± 0.0033 s⁻¹; 16a-OH-Esrradiol kcat (CYP1B1): 0.00933 ± 0.00067 s⁻¹

Further lines, with some results ahead:

Km (COMT) [µM]	kcat (COMT)	Molecule	also measured
74 ± 8	3.3 ± 0.2	COc1cc2c(cc1O)CC[C@@H]1[C@@H]2CC[C@]2(C)C(=O)CC[C@@H]12 [2-MeOE1]	
73 ± 16	2.8 ± 0.4	COc1cc2c(cc1O)[C@H]1CC[C@]3(C)C(=O)CC[C@H]3[C@@H]1CC2 [2-OH-3-MeOE1]	
53 ± 6	6.7 ± 0.4	COc1c(O)ccc2c1CC[C@@H]1[C@@H]2CC[C@]2(C)C(=O)CC[C@@H]12 [4-MeOE1]	Hill Coefficient (COMT): 2.0 ± 0.4
24 ± 3	3.4 ± 0.2	COc1c(O)ccc2c1CC[C@@H]1[C@@H]2CC[C@]2(C)[C@@H](O)CC[C@@H]12 [4-MeOE2]	Hill Coefficient (COMT): 1.6 ± 0.2

Source: patent US20080076129A1, “Method of Detecting an Increased Susceptibility to Breast Cancer” (priority 2000, published 2008)
